Measured values: BindingDB's records for doi:10.1016/S0960-894X(96)00249-1 (1996)

biological target: T1, Gastrin/cholecystokinin type B receptor (Homo sapiens, UniProt P32239); assay: ChEBML_71518
T1 sequence (P32239 whole entry): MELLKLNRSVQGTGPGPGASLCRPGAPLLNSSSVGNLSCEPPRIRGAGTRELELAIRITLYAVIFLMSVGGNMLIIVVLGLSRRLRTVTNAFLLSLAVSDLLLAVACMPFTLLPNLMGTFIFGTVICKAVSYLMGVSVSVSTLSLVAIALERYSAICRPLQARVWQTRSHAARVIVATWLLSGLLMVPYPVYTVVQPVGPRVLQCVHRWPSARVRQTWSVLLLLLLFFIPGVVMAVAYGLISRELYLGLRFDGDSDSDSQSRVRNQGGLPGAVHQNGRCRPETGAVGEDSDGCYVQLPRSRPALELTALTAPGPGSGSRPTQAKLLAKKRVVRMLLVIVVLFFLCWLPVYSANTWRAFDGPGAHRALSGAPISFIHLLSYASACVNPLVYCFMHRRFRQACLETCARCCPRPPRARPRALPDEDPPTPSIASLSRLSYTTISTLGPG

Q: Which IC50 does the source give for `CN1C(=O)[C@H](NC(=O)Nc2cccc(COC(=O)NCNC(=O)CC(=O)NCCSCc3csc(CC(=N)N)n3)c2)N=C(c2ccccc2)c2ccccc21` [[(2-{2-[2-(2,2-Diamino-vinyl)-thiazol-4-ylmethylsulfanyl]-ethylcarbamoyl}-acetylamino)-methyl]-carbamic acid 3-[3-((R)-1-methyl-2-oxo-5-phenyl-2,3-dihydro-1H-benzo[e][1,4]diazepin-3-yl)-ureido]-benzyl ester] here?
A: 4 nM

biological target: not listed separately; assay: Inhibitory activity against gastrin receptor.

Q: With `CN1C(=O)[C@H](NC(=O)Nc2cccc(COC(=O)NCCNC(=O)CC(=O)NCCCOc3cccc(CN4CCCCC4)c3)c2)N=C(c2ccccc2)c2ccccc21` [(2-{2-[3-(3-Piperidin-1-ylmethyl-phenoxy)-propylcarbamoyl]-acetylamino}-ethyl)-carbamic acid 3-[3-((R)-1-methyl-2-oxo-5-phenyl-2,3-dihydro-1H-benzo[e][1,4]diazepin-3-yl)-ureido]-benzyl ester] as the compound, how does the IC50 read?
A: 19 nM

Q: Which IC50 does the source give for `CN1C(=O)[C@H](NC(=O)Nc2cccc(CCOC(=O)NCCCNCCSCc3csc(CC(=N)N)n3)c2)N=C(c2ccccc2)c2ccccc21` [(3-{2-[2-(2,2-Diamino-vinyl)-thiazol-4-ylmethylsulfanyl]-ethylamino}-propyl)-carbamic acid 2-{3-[3-((R)-1-methyl-2-oxo-5-phenyl-2,3-dihydro-1H-benzo[e][1,4]diazepin-3-yl)-ureido]-phenyl}-ethyl ester] here?
A: 37 nM

Q: For `Cc1cccc(NC(=O)N[C@@H]2N=C(c3ccccc3)c3ccccc3N(CCOC(=O)NCCCC(=O)NCCSCc3csc(CC(=N)N)n3)C2=O)c1` [(3-{2-[2-(2,2-Diamino-vinyl)-thiazol-4-ylmethylsulfanyl]-ethylcarbamoyl}-propyl)-carbamic acid 2-[(R)-2-oxo-5-phenyl-3-(3-m-tolyl-ureido)-2,3-dihydro-benzo[e][1,4]diazepin-1-yl]-ethyl ester], which IC50 is on record?
A: 17 nM

Q: Which IC50 does the source give for `Cc1cccc(NC(=O)N[C@@H]2N=C(c3cccc(OC(=O)NCCCC(=O)NCCSCc4csc(CC(=N)N)n4)c3)c3ccccc3N(C)C2=O)c1` [(3-{2-[2-(2,2-Diamino-vinyl)-thiazol-4-ylmethylsulfanyl]-ethylcarbamoyl}-propyl)-carbamic acid 3-[(R)-1-methyl-2-oxo-3-(3-m-tolyl-ureido)-2,3-dihydro-1H-benzo[e][1,4]diazepin-5-yl]-phenyl ester] here?
A: > 1000 nM

Q: Which IC50 does the source give for `CN1C(=O)[C@H](NC(=O)Nc2cccc(COC(=O)NCCN3CCN(C(=O)CNCCCOc4cccc(CN5CCCCC5)c4)CC3)c2)N=C(c2ccccc2)c2ccccc21` [[2-(4-{2-[3-(3-Piperidin-1-ylmethyl-phenoxy)-propylamino]-acetyl}-piperazin-1-yl)-ethyl]-carbamic acid 3-[3-((R)-1-methyl-2-oxo-5-phenyl-2,3-dihydro-1H-benzo[e][1,4]diazepin-3-yl)-ureido]-benzyl ester] here?
A: 7 nM

Q: Which IC50 does the source give for `CN1C(=O)[C@H](NC(=O)Nc2cccc(COC(=O)NCCCN3CCN(C(=O)CNCCCOc4cccc(CN5CCCCC5)c4)CC3)c2)N=C(c2ccccc2)c2ccccc21` [[3-(4-{2-[3-(3-Piperidin-1-ylmethyl-phenoxy)-propylamino]-acetyl}-piperazin-1-yl)-propyl]-carbamic acid 3-[3-((R)-1-methyl-2-oxo-5-phenyl-2,3-dihydro-1H-benzo[e][1,4]diazepin-3-yl)-ureido]-benzyl ester] here?
A: 9 nM

Q: Which IC50 does the source give for `CN1C(=O)[C@H](NC(=O)Nc2cccc(CCOC(=O)NCCC(=O)NCCCOc3cccc(CN4CCCCC4)c3)c2)N=C(c2ccccc2)c2ccccc21` [{2-[3-(3-Piperidin-1-ylmethyl-phenoxy)-propylcarbamoyl]-ethyl}-carbamic acid 2-{3-[3-((R)-1-methyl-2-oxo-5-phenyl-2,3-dihydro-1H-benzo[e][1,4]diazepin-3-yl)-ureido]-phenyl}-ethyl ester] here?
A: 27 nM

Q: Which IC50 does the source give for `CN1C(=O)[C@H](NC(=O)Nc2cccc(COC(=O)NCCC(=O)NCCCOc3cccc(CN4CCCCC4)c3)c2)N=C(c2ccccc2)c2ccccc21` [{2-[3-(3-Piperidin-1-ylmethyl-phenoxy)-propylcarbamoyl]-ethyl}-carbamic acid 3-[3-((R)-1-methyl-2-oxo-5-phenyl-2,3-dihydro-1H-benzo[e][1,4]diazepin-3-yl)-ureido]-benzyl ester] here?
A: 36 nM

Q: For `Cc1cccc(NC(=O)N[C@@H]2N=C(c3ccccc3)c3ccccc3N(CCOC(=O)NCCCC(=O)NCCCOc3cccc(CN4CCCCC4)c3)C2=O)c1` [{3-[3-(3-Piperidin-1-ylmethyl-phenoxy)-propylcarbamoyl]-propyl}-carbamic acid 2-[(R)-2-oxo-5-phenyl-3-(3-m-tolyl-ureido)-2,3-dihydro-benzo[e][1,4]diazepin-1-yl]-ethyl ester], which IC50 is on record?
A: 135 nM

Q: Which IC50 does the source give for `CN1C(=O)[C@H](NC(=O)Nc2cccc(CCOC(=O)NCCCC(=O)NCCCOc3cccc(CN4CCCCC4)c3)c2)N=C(c2ccccc2)c2ccccc21` [{3-[3-(3-Piperidin-1-ylmethyl-phenoxy)-propylcarbamoyl]-propyl}-carbamic acid 2-{3-[3-((R)-1-methyl-2-oxo-5-phenyl-2,3-dihydro-1H-benzo[e][1,4]diazepin-3-yl)-ureido]-phenyl}-ethyl ester] here?
A: 23 nM

Q: Which IC50 does the source give for `CN1C(=O)[C@H](NC(=O)Nc2cccc(COC(=O)NCCCC(=O)NCCCOc3cccc(CN4CCCCC4)c3)c2)N=C(c2ccccc2)c2ccccc21` [{3-[3-(3-Piperidin-1-ylmethyl-phenoxy)-propylcarbamoyl]-propyl}-carbamic acid 3-[3-((R)-1-methyl-2-oxo-5-phenyl-2,3-dihydro-1H-benzo[e][1,4]diazepin-3-yl)-ureido]-benzyl ester] here?
A: 26 nM

Q: With `Cc1cccc(NC(=O)N[C@@H]2N=C(c3cccc(OC(=O)NCCCC(=O)NCCCOc4cccc(CN5CCCCC5)c4)c3)c3ccccc3N(C)C2=O)c1` [{3-[3-(3-Piperidin-1-ylmethyl-phenoxy)-propylcarbamoyl]-propyl}-carbamic acid 3-[(R)-1-methyl-2-oxo-3-(3-m-tolyl-ureido)-2,3-dihydro-1H-benzo[e][1,4]diazepin-5-yl]-phenyl ester] as the compound, how does the IC50 read?
A: 220 nM

Q: Which IC50 does the source give for `CN1C(=O)[C@H](NC(=O)Nc2cccc(COC(=O)NCC(=O)NCCCOc3cccc(CN4CCCCC4)c3)c2)N=C(c2ccccc2)c2ccccc21` [{[3-(3-Piperidin-1-ylmethyl-phenoxy)-propylcarbamoyl]-methyl}-carbamic acid 3-[3-((R)-1-methyl-2-oxo-5-phenyl-2,3-dihydro-1H-benzo[e][1,4]diazepin-3-yl)-ureido]-benzyl ester] here?
A: 11 nM
